# Read-outs that look alike come from different tables or passages of the source.
# What was measured:
# primary human monocytes = assay: Activation of primary human monocytes (CD83/CD86 flow cytometry); assay type: cell-based; conditions: Monocyte, 24 h after stimulation
# From the text: Frozen human PBMCs (100 × 10^6 cells) were obtained from Stem Cell Technologies (Kent, WA, USA). Monocytes were purified from PBMCs using a CD14^+ pan-monocyte-negative isolation kit and an LS column (Miltenyi Biotec, Bergisch Gladbach, Germany). Magnetically labeled non-target cells were depleted by retaining them within a MACS column in the magnetic field of a MACS Separator, while highly purified unlabeled CD1 D16^− cells were collected and used to generate dendritic cells.
# The cell suspension was then incubated with a predetermined optimal concentration of the appropriate fluorescent dye-labeled monoclonal antibodies (mAbs) against human cell surface markers on ice for 30 min. The fluorescent dye-labeled mAbs against human cell surface molecules included anti-CD209, anti-CD14, anti-CD11c, anti-CD40, anti-HLA-DR, anti-CD86, and anti-CD83 (BD Biosciences, Franklin Lakes, NJ, USA or BioLegend, San Diego, CA, USA). In addition, a fixable live/dead stain (Thermo Fisher Scientific) at a dilution of 1:1000 was added to exclude dead cells. After several washes with FACS buffer, cells were resuspended in FACS buffer and analyzed on an Attune Nxt flow cytometer (Thermo Fisher Scientific) with FlowJo v10 software (BD Biosciences). An aliquot of the cells to be analyzed served as controls by using “fluorescent minus-one” to establish gates and determine the frequency of positively stained cells. Ultra-comp beads (Thermo Fisher Scientific) were used as single-stained controls to set up compensation on the flow cytometer.
# [1] = system: primary human immature dendritic cells; assay: Cytokine release from immature dendritic cells; assay type: cell-based
# Protocol: The iMDDCs harvested on Day 5 (25,000 cells/well) after differentiation from normal human CD14+ CD16− monocytes were stimulated with STING agonists for 24–48 h. An aliquot of iMDDCs was also cultured in maturation media for 24–48 h and used as a control containing RPMI 1640, 10% FBS, 2 mM L-glutamine, and human TNF-α (6000 IU/mL, Miltenyi Biotec). The supernatant from the plate was frozen to assess cytokine production, and cells were analyzed via flow cytometry.
# CD11c+ monocyte‐derived dendritic cells. E: Live cells were selected based on live/dead staining
# and cell size. F: Dot plot of size SSC‐A versus SSC‐H for doublet exclusion, gating on singlet cells.
# G: Dot plot of CD209 vs CD11c to select CD209+CD11+ high monocyte‐derived dendritic cells.
# Figure S4. Increased release of cytokines from iDCs after stimulation for 24 hours with 50 μ M of the […]
# CT26 tumors = assay: Re-challenge with CT26 of mice with complete tumor regression; assay type: in vivo, mouse
# Protocol: Ten naïve, age-matched female BALB/c mice were used as controls. […] Tumor growth was measured as described above.
# MC38-hPD-L1 tumors = assay: MC38-hPD-L1 mouse colon carcinoma model; assay type: in vivo; conditions: 0.5 mg/kg SC, QW (2×)
# From the text: Female C57/BL6 mice (Shanghai Lingchang Biotechnology Co., Ltd., Shanghai, China) were 5 to 8 weeks old with a body weight > 16 g at the time of inoculation. Animals were housed and fed as described above.
# After inoculation with tumor cells, the animals were checked daily for morbidity and mortality. During routine monitoring, the animals were checked for any effects of tumor growth or test articles on behavior such as mobility, food and water consumption, body weight gain/loss (body weights were measured twice per week after randomization), eye/hair matting, and any other abnormalities. Tumor volumes were measured and calculated as described above.
# Each group consisted of 10 animals. The control group was administered 5 mg/kg isotype control antibody in a volume of 10 μL/g of IP, BIW for 2.5 weeks, 5 doses total. The atezolizumab-treated group was administered 5 mg/kg in a volume of 10 μL/g of IP, BIW for 2.5 weeks, 5 doses total. […] Dosing started when average tumor volumes were 70 mm^3.
# [2] = system: phosphodiesterase I from Crotalus adamanteus venom (SVPD); assay: in vitro; conditions: pH 8
# STING R232 = STING R232 (Homo sapiens, UniProt Q86WV6, H232R); assay: HEK 293 STING R232 IRF reporter assay; assay type: cell-based; parameters: host or cells: 293T-Dual hSTING-R232 (HEK 293T derived); conditions: HEK 293 STING R232 cells, digitonin dosing buffer 30 min, 20 h; mean±standard deviation; read-out: Reporter Cell Assay EC50, STING R232 IRF
# Chain of STING R232 (Q86WV6 whole entry H232R): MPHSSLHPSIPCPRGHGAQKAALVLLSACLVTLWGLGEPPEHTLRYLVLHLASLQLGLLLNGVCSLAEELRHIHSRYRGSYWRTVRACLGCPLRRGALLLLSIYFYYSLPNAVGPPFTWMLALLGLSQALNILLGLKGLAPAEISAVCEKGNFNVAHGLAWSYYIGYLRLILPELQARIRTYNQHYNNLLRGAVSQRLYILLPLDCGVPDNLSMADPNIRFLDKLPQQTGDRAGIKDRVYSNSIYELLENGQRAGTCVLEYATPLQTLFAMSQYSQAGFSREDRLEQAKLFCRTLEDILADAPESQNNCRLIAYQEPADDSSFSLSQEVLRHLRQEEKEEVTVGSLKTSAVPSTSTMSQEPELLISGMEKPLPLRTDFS
# Protocol: Assays were set up after allowing cells to adhere for 48 h. Compounds dissolved in water were serially diluted in dosing buffer containing 10 µg/mL of digitonin (MP Biomedicals, Solon, OH, USA). Media were aspirated from the cells, and 50 µL of buffer with compound was added in triplicate. […] An aliquot of 100 µL of CellTiter-Glo® (Promega, Madison, WI, USA) was added to the original plate still containing the cells, and luminescence was determined to measure viability. All readouts were measured on an Envision plate reader from Perkin Elmer. Data were analyzed using GraphPad™ Prism’s version 8.0 [Agonist] vs. response—variable slope (four parameters) model.
structure (smiles),measurement,setting,value
CO[C@H]1[C@H]2OP(=O)(O)OC[C@@]34C[C@@H]3[C@@H](n3cnc5c(N)ncnc53)[C@H](O)[C@@H]4O[P@](=O)(S)OC[C@H]1O[C@H]2n1cnc2c(=O)[nH]c(N)nc21 [ALG-031048],EC50,"primary human monocytes; read-out: EC50 CD83, Monocytes",8100 nM
same,EC50,"primary human monocytes; read-out: EC50 CD86, Monocytes",1120 nM
same,IFN-γ and IL-6 release from iDCs,[1]; 24 h time point,either no increase or only a minimal increase
same,Cytokine release from iDCs,"[1]; treatment for 24 h, 50 μM (Figure S4)","release of key cytokines IFN-β, IP-10, MIP-1α, MCP-1, and TNF-α"
same,Animals with complete tumor suppression (TV < 10 mm^3) after CT26 re-challenge,"CT26 tumors; Figure 5C, previously 100 μg IT × 3, CT26 left flank, 25 days, no further treatment",six
same,TV at last measurement of animals with delayed tumor growth after CT26 re-challenge,"CT26 tumors; Figure 5C, three animals",40–221 mm^3
same,TV at end of study of remaining re-challenged animal,"CT26 tumors; complete responders to 100 μg IT 3 × q3d, CT26 re-challenge",864 mm^3
same,Animals with tumor growth suppressed after CT26 re-challenge,"CT26 tumors; complete responders to 100 μg IT 3 × q3d, re-challenged on opposite flank, 40 days without additional treatment",8 of 9
same,Tumor Reduction vs. Group 1 (vehicle),MC38-hPD-L1 tumors; Day 11,40.3%
same,TV on Day 11 (Median),"MC38-hPD-L1 tumors; n = 10, vehicle 2268",1353 mm^3
same,remaining at 24 h,[2],100%
same,EC50,STING R232,29 nM

# Source: article PMC10671074, “Tumor Regression upon Intratumoral and Subcutaneous Dosing of the STING Agonist ALG-031048 in Mouse Efficacy Models” (International Journal of Molecular Sciences, 2023)
